Test results reported in patent publication US20250263424A1, “KRAS INHIBITORS” (Bristol-Myers Squibb Company, priority 2022, published 2025).
Read-outs that look alike come from different tables or passages of the source.

Target: Recombinant GMPPNP-loaded KRAS G12C (KRAS-G12C(ON), active form) (Homo sapiens, UniProt P01116, G12C)
Assay: KRAS G12C RAF Disruption Assay (HTRF)
Format: biochemical
Conditions: GMPPNP-loaded KRAS G12C 5 nM, GST-RAF1 RBD 9 nM, read-out: KRASG12C RAF Disruption Assay (IC50)
Experimental: This is a functional assay that measures activity of compounds against […]., the active form of KRAS G12C. Recombinant GMPPNP-loaded KRAS G12C (5 nM) was treated with compound at room temperature for 20 minutes in assay buffer (50 mM Tris pH 7.5, 100 mM NaCl, 1 mM MgCl2, 1 mM DTT, 100 μg/ml BSA). Recombinant GST-RAF1 RBD (9 nM) was added, and the reaction mixture was incubated for 20 minutes. SA-Tb (0.25 nM) was added, and the reaction mixture was incubated for 3 hours. HTRF signal was measured (PerkinElmer Envision), the signal ratio (λem 520/λem 495) was calculated, and IC50 values were calculated from the dose-response curve.

Recombinant GMPPNP-loaded KRAS G12C (KRAS-G12C(ON), active form), sequence (P01116 1-188 isoform P01116-2 G12C): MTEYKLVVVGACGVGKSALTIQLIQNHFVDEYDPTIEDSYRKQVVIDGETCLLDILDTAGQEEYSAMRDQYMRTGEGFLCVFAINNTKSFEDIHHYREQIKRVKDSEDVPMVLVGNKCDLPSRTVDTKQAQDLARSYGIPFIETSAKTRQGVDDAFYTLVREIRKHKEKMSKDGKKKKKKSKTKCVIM

Row | Structure (SMILES) | IC50 (values given in μM) [µM] | IC50 (values in nM) [µM]
1 | O=C(/C(F)=C/c1nccs1)N1[C@@H]2CC[C@H]1CN(c1nc(OC[C@@]34CCCN3C[C@H](F)C4)nc3c(F)c(-c4cccc5cccc(Cl)c45)ccc13)C2 [Example 10, (Z)-1-((1R,5S)-3-(7-(8-chloronaphthalen-1-yl)-8-fluoro-2-(((2R,7aS)-2-fluorotetrahydro-1H-pyrrolizin-7a(5H)-yl)methoxy)quinazolin-4-yl)-3,8-diazabicyclo[3.2.1]octan-8-yl)-2-fluoro-3-(thiazol-2-yl)prop-2-en-1-one] | 93 | 
2 | Cc1cc(N)nc(-c2c(Cl)cc3c(N4CC5CCC(C4)N5C(=O)/C(F)=C/c4nccs4)nc(OCC4(CN5CCCCC5)CC4)nc3c2F)c1C(F)(F)F [Example 11, (Z)-1-((1R,5S)-3-((7M)-7-(6-amino-4-methyl-3-(trifluoromethyl)pyridin-2-yl)-6-chloro-8-fluoro-2-((1-(piperidin-1-ylmethyl)cyclopropyl)methoxy)quinazolin-4-yl)-3,8-diazabicyclo[3.2.1]octan-8-yl)-2-fluoro-3-(thiazol-2-yl)prop-2-en-1-one] | 5.3 | 
3 | Cc1cc(N)nc(-c2c(Cl)cc3c(N4CC5CC(C4)N5C(=O)/C(F)=C/c4nccs4)nc(OC[C@]45CCCN4C[C@H](F)C5)nc3c2F)c1C(F)(F)F [Example 12, (Z)-1-(3-((7M)-7-(6-amino-4-methyl-3-(trifluoromethyl)pyridin-2-yl)-6-chloro-8-fluoro-2-(((2R,7aR)-2-fluorotetrahydro-1H-pyrrolizin-7a(5H)-yl)methoxy)quinazolin-4-yl)-3,6-diazabicyclo[3.1.1]heptan-6-yl)-2-fluoro-3-(thiazol-2-yl)prop-2-en-1-one] | 9.2 | 
4 | Cc1cc(N)nc(-c2c(Cl)cc3c(N4CCC5C(C4)CN5C(=O)/C(F)=C/c4nccs4)nc(OC[C@]45CCCN4C[C@H](F)C5)nc3c2F)c1C(F)(F)F (stereo partly drawn) [Example 16, (Z)-1-(3-((7M)-7-(6-amino-4-methyl-3-(trifluoromethyl)pyridin-2-yl)-6-chloro-8-fluoro-2-(((2R,7aR)-2-fluorotetrahydro-1H-pyrrolizin-7a(5H)-yl)methoxy)quinazolin-4-yl)-3,7-diazabicyclo[4.2.0]octan-7-yl)-2-fluoro-3-(thiazol-2-yl)prop-2-en-1-one] | 4.2 | 
5 | Cc1cc(N)nc(-c2c(Cl)cc3c(N4C[C@H](C)N(C(=O)/C(F)=C/c5nccs5)C[C@H]4C)nc(OCC45CCCN4CC(F)C5)nc3c2F)c1C(F)(F)F (stereo partly drawn) [Example 19, (Z)-1-((2S,5R)-4-((7M)-7-(6-amino-4-methyl-3-(trifluoromethyl)pyridin-2-yl)-6-chloro-8-fluoro-2-((2-fluorotetrahydro-1H-pyrrolizin-7a(5H)-yl)methoxy)quinazolin-4-yl)-2,5-dimethylpiperazin-1-yl)-2-fluoro-3-(thiazol-2-yl)prop-2-en-1-one] | 3.2 | 
6 | CN1CCC[C@H]1COc1nc(N2CCN(C(=O)/C(F)=C/c3nccs3)[C@@H](CC#N)C2)c2ccc(-c3cc(O)cc4ccccc34)c(F)c2n1 [Example 23, 2-((S)-1-((Z)-2-fluoro-3-(thiazol-2-yl)acryloyl)-4-(8-fluoro-7-(3-hydroxynaphthalen-1-yl)-2-(((S)-1-methylpyrrolidin-2-yl)methoxy)quinazolin-4-yl)piperazin-2-yl)acetonitrile] |  | 0.016
7 | CN1CCC[C@H]1COc1nc(N2CCN(C(=O)/C(F)=C/c3nccs3)CC2)c2ccc(-c3cc(O)cc4ccccc34)c(F)c2n1 [Example 29, (S,Z)-2-fluoro-1-(4-(8-fluoro-7-(3-hydroxynaphthalen-1-yl)-2-((1-methylpyrrolidin-2-yl)methoxy)quinazolin-4-yl)piperazin-1-yl)-3-(thiazol-2-yl)prop-2-en-1-one] |  | 0.18
8 | CN1CCC[C@H]1COc1nc(N2CCN(C(=O)/C(F)=C/c3ncccn3)CC2)c2ccc(-c3cc(O)cc4ccccc34)c(F)c2n1 [Example 32, (S,Z)-2-fluoro-1-(4-(8-fluoro-7-(3-hydroxynaphthalen-1-yl)-2-((1-methylpyrrolidin-2-yl)methoxy)quinazolin-4-yl)piperazin-1-yl)-3-(pyrimidin-2-yl)prop-2-en-1-one] |  | 0.29
9 | CN1CCC[C@H]1COc1nc(N2CCN(C(=O)/C(F)=C/c3nccs3)[C@@H](CC#N)C2)c2ccc(-c3cccc4cccc(Cl)c34)c(F)c2n1 [Example 33, 2-((S)-1-((Z)-2-fluoro-3-(thiazol-2-yl)acryloyl)-4-(8-fluoro-7-(8-chloronaphthalen-1-yl)-2-(((S)-1-methylpyrrolidin-2-yl)methoxy)quinazolin-4-yl)piperazin-2-yl)acetonitrile] |  | 0.076
10 | Cc1cccc(/C=C(\F)C(=O)N2CCN(c3nc(OC[C@@H]4CCCN4C)nc4c(F)c(-c5cc(O)cc6ccccc56)ccc34)C[C@@H]2CC#N)n1 [Example 34, 2-((S)-1-((Z)-2-fluoro-3-(6-methylpyridin-2-yl)acryloyl)-4-(8-fluoro-7-(3-hydroxynaphthalen-1-yl)-2-(((S)-1-methylpyrrolidin-2-yl)methoxy)quinazolin-4-yl)piperazin-2-yl)acetonitrile] |  | 0.027
11 | Cc1cccc(/C=C(\F)C(=O)N2CCN(c3nc(OC[C@@H]4CCCN4C)nc4c(F)c(-c5cccc6cccc(Cl)c56)ccc34)C[C@@H]2CC#N)n1 [Example 36, 2-((S)-1-((Z)-2-fluoro-3-(6-methylpyridin-2-yl)acryloyl)-4-(8-fluoro-7-(8-chloronaphthalen-1-yl)-2-(((S)-1-methylpyrrolidin-2-yl)methoxy)quinazolin-4-yl)piperazin-2-yl)acetonitrile] |  | 0.025

Further lines, results first:

Row | IC50 (values given in μM) [µM] | IC50 (values in nM) [µM] | Structure (SMILES)
12 | 9.6 |  | CN1CCC[C@H]1COc1nc(N2C[C@H]3CC[C@@H](C2)N3C(=O)/C(F)=C/c2ccccn2)c2cc(Cl)c(-c3cc(O)cc4ccccc34)c(F)c2n1 [Example 8, (Z)-1-((1R,5S)-3-(6-chloro-8-fluoro-7-(3-hydroxynaphthalen-1-yl)-2-(((S)-1-methylpyrrolidin-2-yl)methoxy)quinazolin-4-yl)-3,8-diazabicyclo[3.2.1]octan-8-yl)-2-fluoro-3-(pyridin-2-yl)prop-2-en-1-one]
13 |  | 0.4 | C#Cc1c(F)ccc2cc(O)cc(-c3ccc4c(N5C[C@H]6CC[C@@H](C5)N6C(=O)/C(F)=C/c5nccs5)nc(OC[C@@H]5CCCN5C)nc4c3F)c12 [Example 21, (Z)-1-((1R,5S)-3-(7-(8-ethynyl-7-fluoro-3-hydroxynaphthalen-1-yl)-8-fluoro-2-(((S)-1-methylpyrrolidin-2-yl)methoxy)quinazolin-4-yl)-3,8-diazabicyclo[3.2.1]octan-8-yl)-2-fluoro-3-(thiazol-2-yl)prop-2-en-1-one]
14 |  | 0.26 | C#Cc1c(F)ccc2cc(O)cc(-c3ccc4c(N5C[C@H]6CC[C@@H](C5)N6C(=O)/C(F)=C/c5ccccn5)nc(OC[C@@H]5CCCN5C)nc4c3F)c12 [Example 22, (Z)-1-((1R,5S)-3-(7-(8-ethynyl-7-fluoro-3-hydroxynaphthalen-1-yl)-8-fluoro-2-(((S)-1-methylpyrrolidin-2-yl)methoxy)quinazolin-4-yl)-3,8-diazabicyclo[3.2.1]octan-8-yl)-2-fluoro-3-(pyridin-2-yl)prop-2-en-1-one]
15 |  | 0.022 | CN1CCC[C@H]1COc1nc(N2CCN(C(=O)/C(F)=C/c3ccccn3)[C@@H](CC#N)C2)c2ccc(-c3cc(O)cc4ccccc34)c(F)c2n1 [Example 24, 2-((S)-1-((Z)-2-fluoro-3-(pyridin-2-yl)acryloyl)-4-(8-fluoro-7-(3-hydroxynaphthalen-1-yl)-2-(((S)-1-methylpyrrolidin-2-yl)methoxy)quinazolin-4-yl)piperazin-2-yl)acetonitrile]
16 |  | 0.0064 | C#Cc1c(F)ccc2cc(O)cc(-c3ccc4c(N5C[C@H]6CC[C@@H](C5)N6C(=O)/C(F)=C/c5ccccn5)nc(OC[C@]56CCC[C@H]5N(C)CCC6)nc4c3F)c12 [Example 27, (Z)-1-((1R,5S)-3-(7-(8-ethynyl-7-fluoro-3-hydroxynaphthalen-1-yl)-8-fluoro-2-(((4aS,7aR)-1-methyloctahydro-4aH-cyclopenta[b]pyridin-4a-yl)methoxy)quinazolin-4-yl)-3,8-diazabicyclo[3.2.1]octan-8-yl)-2-fluoro-3-(pyridin-2-yl)prop-2-en-1-one]
17 |  | 0.35 | CN1CCC[C@H]1COc1nc(N2CCN(C(=O)/C(F)=C/c3ccccn3)CC2)c2ccc(-c3cc(O)cc4ccccc34)c(F)c2n1 [Example 28, (S,Z)-2-fluoro-1-(4-(8-fluoro-7-(3-hydroxynaphthalen-1-yl)-2-((1-methylpyrrolidin-2-yl)methoxy)quinazolin-4-yl)piperazin-1-yl)-3-(pyridin-2-yl)prop-2-en-1-one]
18 | 21.3 |  | C#Cc1c(F)ccc2cc(O)cc(-c3ccc4c(N5C[C@H]6CC[C@@H](C5)N6C(=O)/C(F)=C/c5ncccn5)nc(OC[C@@H]5CCCN5C)nc4c3F)c12 [Example 30, (Z)-1-((1R,5S)-3-(7-(8-ethynyl-7-fluoro-3-hydroxynaphthalen-1-yl)-8-fluoro-2-(((S)-1-methylpyrrolidin-2-yl)methoxy)quinazolin-4-yl)-3,8-diazabicyclo[3.2.1]octan-8-yl)-2-fluoro-3-(pyrimidin-2-yl)prop-2-en-1-one]
19 |  | 0.29 | C#Cc1c(F)ccc2cc(O)cc(-c3ccc4c(N5C[C@H]6CC[C@@H](C5)N6C(=O)/C(F)=C/c5cccc(C)n5)nc(OC[C@@H]5CCCN5C)nc4c3F)c12 [Example 35, (Z)-1-((1R,5S)-3-(7-(8-ethynyl-7-fluoro-3-hydroxynaphthalen-1-yl)-8-fluoro-2-(((S)-1-methylpyrrolidin-2-yl)methoxy)quinazolin-4-yl)-3,8-diazabicyclo[3.2.1]octan-8-yl)-2-fluoro-3-(6-methylpyridin-2-yl)prop-2-en-1-one]
